Test results: the NIST ThermoML archive (doi:10.1021/je700026d)

Test: xn = mol fraction of the nth substance listed
Settings: Liquid; for speed of sound: 100 kPa, Linear variable-path acoustic interferometer; for mass density: Pycnometric method; for viscosity: Capillary tube (Ostwald / Ubbelohde) method

COCCOC [1,2-dimethoxyethane] + NC=O
298.15 K
Settings | speed of sound [m/s]
x2 = 0 | 1146.2
x2 = 0.1819 | 1200.3
x2 = 0.3334 | 1254.3
x2 = 0.4616 | 1306.2
x2 = 0.5715 | 1355
x2 = 0.6668 | 1399.9
x2 = 0.7501 | 1441.9
x2 = 0.8236 | 1480.5
x2 = 0.8889 | 1518.5
x2 = 0.9474 | 1556.1

Settings | mass density, 298.15 K [kg/m3] | mass density, 308.15 K [kg/m3] | mass density, 318.15 K [kg/m3] | viscosity, 298.15 K [mPa·s] | viscosity, 308.15 K [mPa·s] | viscosity, 318.15 K [mPa·s]
101 kPa, x2 = 0 | 861.5 | 850.7 | 839.6 | – | – | –
101 kPa, x2 = 0.1819 | 893.1 | 883.5 | 874.6 | – | – | –
101 kPa, x2 = 0.3334 | 920.1 | 910.4 | 902.6 | – | – | –
101 kPa, x2 = 0.4616 | 946 | 936.3 | 929.4 | – | – | –
101 kPa, x2 = 0.5715 | 971.8 | 962.3 | 955.9 | – | – | –
101 kPa, x2 = 0.6668 | 997.3 | 988.5 | 982.2 | – | – | –
101 kPa, x2 = 0.7501 | 1022.2 | 1013.6 | 1007.5 | – | – | –
101 kPa, x2 = 0.8236 | 1048.3 | 1039.4 | 1033.3 | – | – | –
101 kPa, x2 = 0.8889 | 1073.7 | 1065.7 | 1059.2 | – | – | –
101 kPa, x2 = 0.9474 | 1100.3 | 1092.7 | 1085.5 | – | – | –
101.3 kPa, x2 = 0 | – | – | – | 0.409 | 0.366 | 0.33
101.3 kPa, x2 = 0.1819 | – | – | – | 0.603 | 0.522 | 0.459
101.3 kPa, x2 = 0.3334 | – | – | – | 0.848 | 0.713 | 0.609
101.3 kPa, x2 = 0.4616 | – | – | – | 1.164 | 0.952 | 0.785
101.3 kPa, x2 = 0.5715 | – | – | – | 1.545 | 1.243 | 0.994
101.3 kPa, x2 = 0.6668 | – | – | – | 1.925 | 1.536 | 1.218
101.3 kPa, x2 = 0.7501 | – | – | – | 2.296 | 1.806 | 1.427
101.3 kPa, x2 = 0.8236 | – | – | – | 2.627 | 2.045 | 1.614
101.3 kPa, x2 = 0.8889 | – | – | – | 2.899 | 2.243 | 1.775
101.3 kPa, x2 = 0.9474 | – | – | – | 3.12 | 2.408 | 1.903

CC(=O)c1ccccc1 [acetophenone] + NC=O
298.15 K
Settings | speed of sound [m/s]
x2 = 0 | 1296.4
x2 = 0.2286 | 1304.8
x2 = 0.4001 | 1323.3
x2 = 0.5334 | 1345.8
x2 = 0.6401 | 1379.3
x2 = 0.7273 | 1413.6
x2 = 0.8001 | 1456.5
x2 = 0.8616 | 1488.4
x2 = 0.9143 | 1527.3
x2 = 0.96 | 1558.9

101.3 kPa
Settings | mass density, 298.15 K [kg/m3] | mass density, 308.15 K [kg/m3] | mass density, 318.15 K [kg/m3] | viscosity, 298.15 K [mPa·s] | viscosity, 308.15 K [mPa·s] | viscosity, 318.15 K [mPa·s]
x2 = 0 | 1023.1 | 1014.8 | 1007.5 | 1.653 | 1.412 | 1.117
x2 = 0.2286 | 1032.9 | 1024.9 | 1017.5 | 2.234 | 1.762 | 1.377
x2 = 0.4001 | 1042.9 | 1035.1 | 1027.5 | 2.795 | 2.077 | 1.607
x2 = 0.5334 | 1053.1 | 1045.3 | 1037.6 | 3.267 | 2.355 | 1.825
x2 = 0.6401 | 1063.3 | 1055.5 | 1047.7 | 3.596 | 2.587 | 1.988
x2 = 0.7273 | 1073.8 | 1065.8 | 1057.9 | 3.778 | 2.724 | 2.1
x2 = 0.8001 | 1084.4 | 1076.3 | 1068.2 | 3.819 | 2.779 | 2.141
x2 = 0.8616 | 1095.3 | 1087 | 1078.7 | 3.735 | 2.748 | 2.111
x2 = 0.9143 | 1106.4 | 1097.9 | 1089.4 | 3.59 | 2.685 | 2.068
x2 = 0.96 | 1117.7 | 1109.1 | 1100.1 | 3.439 | 2.608 | 2.027

NC=O [formamide] + CC#N
298.15 K
Settings | speed of sound [m/s]
x1 = 0.0919 | 1277.7
x1 = 0.1856 | 1299.6
x1 = 0.2809 | 1322.8
x1 = 0.3779 | 1349.6
x1 = 0.4768 | 1380.8
x1 = 0.5775 | 1412.8
x1 = 0.6802 | 1449
x1 = 0.7847 | 1488.8
x1 = 0.8913 | 1529.8
x1 = 1 | 1591.3

101.3 kPa
Settings | mass density, 298.15 K [kg/m3] | mass density, 308.15 K [kg/m3] | mass density, 318.15 K [kg/m3] | viscosity, 298.15 K [mPa·s] | viscosity, 308.15 K [mPa·s] | viscosity, 318.15 K [mPa·s]
x1 = 0.0919 | 803.8 | 794.9 | 785.6 | 0.402 | 0.366 | 0.339
x1 = 0.1856 | 832.8 | 824.1 | 815.8 | 0.485 | 0.432 | 0.396
x1 = 0.2809 | 863.4 | 855.1 | 847.4 | 0.593 | 0.522 | 0.472
x1 = 0.3779 | 895.8 | 887.4 | 879.9 | 0.733 | 0.635 | 0.565
x1 = 0.4768 | 929.2 | 921.2 | 914 | 0.921 | 0.786 | 0.687
x1 = 0.5775 | 965.2 | 956.6 | 950.7 | 1.168 | 0.978 | 0.847
x1 = 0.6802 | 1002.9 | 994.4 | 989.4 | 1.507 | 1.239 | 1.046
x1 = 0.7847 | 1042.6 | 1034.7 | 1029.3 | 1.945 | 1.569 | 1.295
x1 = 0.8913 | 1085.1 | 1076.9 | 1071.6 | 2.54 | 1.999 | 1.615
x1 = 1 | 1129.2 | 1120.5 | 1111.1 | 3.302 | 2.542 | 2.001

NC=O [formamide] + COCCO
298.15 K
Settings | speed of sound [m/s]
x1 = 0.1581 | 1353.6
x1 = 0.2969 | 1373.7
x1 = 0.4199 | 1397.5
x1 = 0.5297 | 1423.8
x1 = 0.6282 | 1451.1
x1 = 0.7171 | 1478.3
x1 = 0.7977 | 1506
x1 = 0.8711 | 1533.9
x1 = 0.9383 | 1564.3
x1 = 1 | 1591.3

101.3 kPa
Settings | mass density, 298.15 K [kg/m3] | mass density, 308.15 K [kg/m3] | mass density, 318.15 K [kg/m3] | viscosity, 298.15 K [mPa·s] | viscosity, 308.15 K [mPa·s] | viscosity, 318.15 K [mPa·s]
x1 = 0.1581 | 977 | 969.1 | 963.5 | 1.912 | 1.515 | 1.225
x1 = 0.2969 | 994.2 | 986.2 | 980.3 | 2.291 | 1.759 | 1.394
x1 = 0.4199 | 1010.9 | 1002.8 | 996.5 | 2.659 | 1.997 | 1.561
x1 = 0.5297 | 1027.6 | 1019.4 | 1012.8 | 2.963 | 2.206 | 1.709
x1 = 0.6282 | 1044.1 | 1035.9 | 1029.1 | 3.173 | 2.367 | 1.831
x1 = 0.7171 | 1060.2 | 1052.3 | 1045.3 | 3.331 | 2.485 | 1.929
x1 = 0.7977 | 1076.7 | 1068.7 | 1061.5 | 3.395 | 2.541 | 1.978
x1 = 0.8711 | 1093.8 | 1085.7 | 1078.1 | 3.399 | 2.562 | 2.016
x1 = 0.9383 | 1111.1 | 1102.9 | 1094.6 | 3.348 | 2.55 | 2.003
x1 = 1 | 1129.2 | 1120.5 | 1111.1 | 3.302 | 2.542 | 2.001

NC=O [formamide] + C[S+](C)[O-]
298.15 K
Settings | speed of sound [m/s]
x1 = 0.1616 | 1480.1
x1 = 0.3025 | 1480.6
x1 = 0.4264 | 1483.9
x1 = 0.5363 | 1492.3
x1 = 0.6343 | 1502.9
x1 = 0.7224 | 1512.7
x1 = 0.8019 | 1526.4
x1 = 0.874 | 1543.7
x1 = 0.9398 | 1561.2
x1 = 1 | 1591.3

101.3 kPa
Settings | mass density, 298.15 K [kg/m3] | mass density, 308.15 K [kg/m3] | mass density, 318.15 K [kg/m3] | viscosity, 298.15 K [mPa·s] | viscosity, 308.15 K [mPa·s] | viscosity, 318.15 K [mPa·s]
x1 = 0.1616 | 1099.3 | 1090.7 | 1082.7 | 2.457 | 1.859 | 1.64
x1 = 0.3025 | 1102.8 | 1094.9 | 1087.3 | 2.868 | 2.135 | 1.823
x1 = 0.4264 | 1106.3 | 1098.5 | 1090.9 | 3.214 | 2.365 | 1.968
x1 = 0.5363 | 1109.5 | 1101.6 | 1093.9 | 3.468 | 2.52 | 2.059
x1 = 0.6343 | 1112.6 | 1104.6 | 1096.7 | 3.608 | 2.621 | 2.112
x1 = 0.7224 | 1115.8 | 1107.6 | 1099.5 | 3.652 | 2.653 | 2.118
x1 = 0.8019 | 1119.1 | 1110.7 | 1102.3 | 3.626 | 2.639 | 2.083
x1 = 0.874 | 1122.5 | 1113.9 | 1105.3 | 3.54 | 2.613 | 2.054
x1 = 0.9398 | 1125.8 | 1117.2 | 1108.2 | 3.426 | 2.571 | 2.021
x1 = 1 | 1129.2 | 1120.5 | 1111.1 | 3.302 | 2.542 | 2.001
